# Patent US9381204B2, “Pharmaceutical compositions containing phosphatidylserine and curcumin” (FIDIA FARMACEUTICI S.P.A., priority 2012, dated 2016)
# Legend:
# microglia BV-2 cells = assay: IL-1β release from LPS-stimulated BV-2 cells (ELISA); assay type: cell-based, murine; settings: administered individually, 0.1 μg/ml LPS 16 hours; for inhibition of IL-1β release (FIG. 4): 1 μM or 5 μM; for inhibition of IL-1β release at the higher concentration (FIG. 4): 5 μM
# Method: The experiment was conducted in two steps, and was designed to evaluate the effect on in vitro release of IL-1β from microglia BV-2 cells stimulated with LPS after administration of PS and curcumin. IL-1β is a cytokine strongly involved in the inflammatory processes underlying both osteoarticular disorders and neurodegeneration.
# Murine microglial BV-2 cells were stimulated as described in Example 3 (0.1 μg/ml LPS for 16 hours) and then treated with PS and curcumin at the concentration of 1 μM or 5 μM. The IL-1β levels were determined by ELISA assay. The control (CTRL) was represented by cells stimulated with LPS but not treated.
# At the second stage of the experiment the effects of the combination of the two substances were evaluated on the same parameter according to the same protocol.
# [1] = test system: neural progenitor cells (NPCs); assay: Neuronal differentiation (βIII tubulin) of NPCs exposed to medium of LPS-activated microglia; assay type: cell-based, mice; settings: alone, 1 and 5 μM; NPCs with medium of LPS-activated microglia, 6 days
# Method: Cultures of stem cells/neural progenitor cells (NPCs) obtained from the subventricular zone of adult mice were used. The NPCs were cultured under conditions of differentiation by mechanical dissociation of the neurospheres and seeding of the individual cells on plates coated with poly-ornithine and laminin in a culture medium only containing factor bFGF, according to state-of-the-art techniques.
# The NPC cultures thus obtained were divided into aliquots, each of which was treated differently, as follows:
# b) treatment a) and PS and curcumin administered separately at different concentrations;
# c) treatment a) and PS/curcumin combined at different relative concentrations.
# The control was represented by untreated NPC cells.
# Neuronal differentiation was evaluated after 6 days, by immunocytochemical analysis with antibodies directed against the specific marker βIII tubulin, extrapolating the % concentration of protein present in the medium.
# [2] = test system: murine microglia BV-2 cells; assay: NO release by LPS-activated BV-2 microglia (Griess test); assay type: cell-based; settings: 0.1 μg/ml LPS overnight; for effect on release of NO into the culture medium (FIG. 1): PS 10 and 30 μM, curcumin 2.5 and 5 μM
# Method: PS (sodium salt), produced and purified according to EP1890706 (example 3), was resuspended in 2:1 chloroform/methanol, dried by evaporation and resuspended in PBS at the final concentration of 100 μM. 95% pure curcumin, prepared in DMSO at the final active ingredient concentration of 20 mM, was used for this experiment.
# An in vitro glial activation model using the murine microglia BV-2 cell line was selected for this experiment:
# 50,000 cells/well were initially seeded in 96-well plates and cultured in DMEM containing 10% FCS, glutamine and antibiotics at 37° C. If activated with LPS (lipopolysaccharide, an endotoxin of Gram-negative bacterial, normally used as pro-inflammatory stimulus both in vitro and in vivo), these cells release NO into the culture medium; the experiment therefore involved stimulating them with 0.1 μg/ml LPS overnight in the presence or absence of PS (10 and 30 μM) or curcumin (2.5 and 5 μM) at different concentrations.
# Finally, to evaluate the synergy between the two active constituents, the PS/curcumin combination was tested in the presence of LPS 0.1 μg/ml (as described above):
# 10 μM PS+2.5 μM curcumin, and
# The final NO content in the medium was measured with the Griess test: briefly, aliquots of medium were mixed with equal volumes of Griess reagent (0.1% N(1-naphthyl)ethylenediamine dihydrochloride, 1% sulphanylamide and 0.4M HCl). After 15 minutes' reaction, the absorbance was measured at 570 nm.
Compound,inhibition of IL-1β release (FIG. 4) (microglia BV-2 cells),inhibition of IL-1β release at the higher concentration (FIG. 4) (microglia BV-2 cells),percentage of cells positive to βIII tubulin (FIG. 6) [1],"inhibition at 5 µM ([2]; Mus musculus, single treatment of 5 μM curcumin, read-out: inhibition of NO release into the culture medium) [%]",effect on release of NO into the culture medium (FIG. 1) [2],inhibition of NO release into the culture medium ([2]; single treatment of 10 μM PS) [%]
"COc1cc(C=CC(=O)CC(=O)C=Cc2ccc(O)c(OC)c2)ccc1O [curcumin, 1,7-bis[4-hydroxy-3-methoxyphenyl]-1,6-heptadiene-3,5-dione]","neither PS nor curcumin, administered individually, significantly inhibits the release of IL-1β",limited effect,did not differ significantly from that observed in the presence of LPS alone,< 20,inhibit the release of NO into the medium in a dose-dependent manner,
phosphatidylserine [PS],"neither PS nor curcumin, administered individually, significantly inhibits the release of IL-1β",limited effect,did not differ significantly from that observed in the presence of LPS alone,,inhibit the release of NO into the medium in a dose-dependent manner,≤ 10
